Several values for one entry are separate records, joined by “and”; a condition that tells them apart may be missing. Identical values can stand only once. Inconclusive results and toxic doses are left out.
Tested on: BDF1 mice, P388 leukemia ip, median survival T/C
Test: NCI In Vivo Anticancer Drug Screen. Data for tumor model P388 Leukemia (intraperitoneal) in B6D2F1 (BDF1) mice
Settings: endpoint: median survival time, higher = longer survival
Outline: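 Mice carrying the transplantable tumour receive compound or vehicle. Survival is followed in each arm, and the treated measure is divided by the vehicle measure.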

[1] = dose: 50.0 mg/kg/injection, schedule: Q01DX009 (ip), vehicle: saline
[2] = dose: 200.0 mg/kg/injection, schedule: Q01DX009 (ip), vehicle: saline
[3] = dose: 25.0 mg/kg/injection, schedule: Q01DX009 (ip), vehicle: saline with Tween-80
[4] = dose: 50.0 mg/kg/injection, schedule: Q01DX009 (ip), vehicle: saline with Tween-80
[5] = dose: 200.0 mg/kg/injection, schedule: Q01DX009 (ip), vehicle: saline with Tween-80
[6] = dose: 100.0 mg/kg/injection, schedule: Q01DX009 (ip), vehicle: saline with Tween-80
[7] = dose: 100.0 mg/kg/injection, schedule: Q01DX009 (ip), vehicle: saline

With Cc1ccc(CNc2ccccc2)cc1 the T/C (dose: 25.0 mg/kg/injection, schedule: Q04DX003 (ip), vehicle: other) was 120 % of control, the T/C (dose: 50.0 mg/kg/injection, schedule: Q04DX003 (ip), vehicle: other) was 105 % of control and the T/C (dose: 100.0 mg/kg/injection, schedule: Q04DX003 (ip), vehicle: other) was 110 % of control.

For COc1cc(/C=N/NC(=O)COCC(=O)N/N=C/c2ccc(O)cc2OC)ccc1O, the T/C (dose: 200.0 mg/kg/injection, schedule: Q01DX005 (ip), vehicle: saline with Tween-80) was 96 % of control.

With COC(=O)c1c(C)cc(OC(=O)c2c(C)c(Cl)c(O)c(Cl)c2O)cc1O the T/C (dose: 1.25 mg/kg/injection, schedule: Q01DX009 (ip), vehicle: Klucel (hydroxypropylcellulose) (HPC)) was 91 % of control, the T/C (dose: 2.5 mg/kg/injection, schedule: Q01DX009 (ip), vehicle: Klucel (hydroxypropylcellulose) (HPC)) was 114 % of control and the T/C (dose: 5.0 mg/kg/injection, schedule: Q01DX009 (ip), vehicle: Klucel (hydroxypropylcellulose) (HPC)) was 101 % of control. For the same compound, the T/C (dose: 10.0 mg/kg/injection, schedule: Q01DX009 (ip), vehicle: Klucel (hydroxypropylcellulose) (HPC)) was 108 % of control and the T/C (dose: 20.0 mg/kg/injection, schedule: Q01DX009 (ip), vehicle: Klucel (hydroxypropylcellulose) (HPC)) was 97 % of control.

For O=C(CCl)Nc1cc(Cl)ccc1N1CCCC1, the T/C (dose: 12.5 mg/kg/injection, schedule: Q01DX001 (ip), vehicle: Klucel (hydroxypropylcellulose) (HPC)) was 118 % of control, the T/C (dose: 12.5 mg/kg/injection, schedule: Q04DX003 (ip), vehicle: Klucel (hydroxypropylcellulose) (HPC)) was 90 % of control and the T/C (dose: 25.0 mg/kg/injection, schedule: Q01DX001 (ip), vehicle: Klucel (hydroxypropylcellulose) (HPC)) was 104 % of control. For the same compound, the T/C (dose: 25.0 mg/kg/injection, schedule: Q01DX009 (ip), vehicle: Klucel (hydroxypropylcellulose) (HPC)) was 95 % of control, the T/C (dose: 25.0 mg/kg/injection, schedule: Q04DX003 (ip), vehicle: Klucel (hydroxypropylcellulose) (HPC)) was 104 % of control and the T/C (dose: 50.0 mg/kg/injection, schedule: Q01DX001 (ip), vehicle: Klucel (hydroxypropylcellulose) (HPC)) was 104 % of control. For the same compound, the T/C (dose: 50.0 mg/kg/injection, schedule: Q01DX009 (ip), vehicle: Klucel (hydroxypropylcellulose) (HPC)) was 90 % of control, the T/C (dose: 50.0 mg/kg/injection, schedule: Q04DX003 (ip), vehicle: Klucel (hydroxypropylcellulose) (HPC)) was 104 % of control and the T/C (dose: 75.0 mg/kg/injection, schedule: Q01DX001 (ip), vehicle: Klucel (hydroxypropylcellulose) (HPC)) was 95 % of control. For the same compound, the T/C (dose: 115.0 mg/kg/injection, schedule: Q01DX001 (ip), vehicle: Klucel (hydroxypropylcellulose) (HPC)) was 95 % of control.

In the case of CCCCOC(=O)C1(N)CCCC1, the T/C [1] is reported as 104 % of control, the T/C (dose: 150.0 mg/kg/injection, schedule: Q01DX009 (ip), vehicle: saline with Tween-80) is reported as 120 % of control and the T/C [2] is reported as 109 % of control.

COC1(OC)OC(c2ccccc2)=C(C#N)C(/C=C\c2ccccc2)C1(OC)OC (configuration not stated) was tested, and the T/C (dose: 12.5 mg/kg/injection, schedule: Q01DX009 (ip), vehicle: saline with Tween-80) was 100 % of control, the T/C [3] was 91 % of control and the T/C [4] was 90 % of control and 91 % of control. The T/C [5] was 106 % of control.

For O=C1CN=C(c2ccc[nH]2)c2cc(Cl)ccc2N1, the T/C [3] was 118 % of control, the T/C (dose: 45.0 mg/kg/injection, schedule: Q01DX009 (oral), vehicle: saline) was 104 % of control and the T/C [4] was 100 % of control. For the same compound, the T/C [1] was 97 % of control, the T/C (dose: 65.0 mg/kg/injection, schedule: Q01DX009 (oral), vehicle: saline) was 100 % of control and the T/C (dose: 100.0 mg/kg/injection, schedule: Q01DX001 (ip), vehicle: saline with Tween-80) was 95 % of control. For the same compound, the T/C (dose: 100.0 mg/kg/injection, schedule: Q01DX001 (oral), vehicle: saline with Tween-80) was 90 % of control, the T/C [6] was 118 % of control and the T/C [7] was 105 % of control. The T/C (dose: 100.0 mg/kg/injection, schedule: Q01DX009 (oral), vehicle: saline with Tween-80) was 95 % of control, the T/C (dose: 200.0 mg/kg/injection, schedule: Q01DX001 (ip), vehicle: saline with Tween-80) was 104 % of control and the T/C (dose: 200.0 mg/kg/injection, schedule: Q01DX001 (oral), vehicle: saline with Tween-80) was 86 % of control. For the same compound, the T/C [5] was 118 % of control, the T/C [2] was 97 % of control and the T/C (dose: 200.0 mg/kg/injection, schedule: Q01DX009 (oral), vehicle: saline with Tween-80) was 104 % of control. For the same compound, the T/C (dose: 400.0 mg/kg/injection, schedule: Q01DX001 (ip), vehicle: saline with Tween-80) was 90 % of control, the T/C (dose: 400.0 mg/kg/injection, schedule: Q01DX001 (oral), vehicle: saline with Tween-80) was 95 % of control and the T/C (dose: 400.0 mg/kg/injection, schedule: Q01DX009 (ip), vehicle: saline with Tween-80) was 163 % of control. The T/C (dose: 400.0 mg/kg/injection, schedule: Q01DX009 (ip), vehicle: saline) was 103 % of control, the T/C (dose: 800.0 mg/kg/injection, schedule: Q01DX001 (ip), vehicle: saline with Tween-80) was 109 % of control and the T/C (dose: 800.0 mg/kg/injection, schedule: Q01DX001 (oral), vehicle: saline with Tween-80) was 100 % of control.

CN(Cc1ccco1)NC(=O)C(=O)NCc1ccco1 was tested, and the T/C (dose: 12.5 mg/kg/injection, schedule: Q01DX005 (ip), vehicle: saline with Tween-80) was 95 % of control, the T/C (dose: 25.0 mg/kg/injection, schedule: Q01DX005 (ip), vehicle: saline with Tween-80) was 95 % of control and the T/C (dose: 50.0 mg/kg/injection, schedule: Q01DX005 (ip), vehicle: saline with Tween-80) was 88 % of control.

For CCNC(C)(C)C(SS(=O)(=O)O)c1ccc(Cl)s1 (configuration not stated), the T/C [3] was 103 % of control, the T/C [4] was 95 % of control and 121 % of control and the T/C (dose: 75.0 mg/kg/injection, schedule: Q01DX009 (ip), vehicle: saline with Tween-80) was 103 % of control. The T/C [6] was 102 % of control, the T/C (dose: 100.0 mg/kg/injection, schedule: Q04DX003 (ip), vehicle: saline with Tween-80) was 95 % of control and the T/C [5] was 102 % of control. For the same compound, the T/C (dose: 200.0 mg/kg/injection, schedule: Q04DX003 (ip), vehicle: saline with Tween-80) was 94 % of control and the T/C (dose: 300.0 mg/kg/injection, schedule: Q01DX009 (ip), vehicle: saline with Tween-80) was 101 % of control.

For CCC(CC)c1ccccn1, the T/C [1] was 104 % of control, the T/C (dose: 100.0 mg/kg/injection, schedule: Q01DX009 (ip), vehicle: carboxymethylcellulose (CMC)) was 99 % of control and the T/C [7] was 105 % of control. For the same compound, the T/C (dose: 200.0 mg/kg/injection, schedule: Q01DX009 (ip), vehicle: carboxymethylcellulose (CMC)) was 108 % of control and the T/C [2] was 113 % of control.

For COC(=O)C(C#N)=N/C=C/C=C1/N(C)c2ccccc2C1(C)C, the T/C [4] was 96 % of control, the T/C [6] was 92 % of control and the T/C [5] was 99 % of control.

In the case of CCCCCCCOc1cccc(OCCCC[N+]2(CC)CCCCC2)c1, the T/C (dose: 6.25 mg/kg/injection, schedule: Q01DX009 (ip), vehicle: saline) is reported as 110 % of control.

With CCCCOc1ccc(C(=O)N/N=C(\C)[C@]2(O)Cc3c(O)c4c(c(O)c3[C@@H](OC3CC(N)C(O)C(C)O3)C2)C(=O)c2c(OC)cccc2C4=O)cc1 (some centres not stated) the T/C (dose: 1.0 mg/kg/injection, schedule: Q01DX009 (ip), vehicle: water) was 173 % of control, the T/C (dose: 2.0 mg/kg/injection, schedule: Q01DX009 (ip), vehicle: water) was 157 % of control and 173 % of control and the T/C (dose: 4.0 mg/kg/injection, schedule: Q01DX009 (ip), vehicle: water) was 169 % of control.

With COc1ccc(-c2csc(-c3ccccc3)n2)cc1N=Cc1ccc(N(CCCl)CCCl)c(OC)c1 the T/C (dose: 2.6 mg/kg/injection, schedule: Q04DX003 (ip), vehicle: saline with Tween-80) was 118 % of control, the T/C (dose: 4.0 mg/kg/injection, schedule: Q04DX003 (ip), vehicle: saline with Tween-80) was 122 % of control and the T/C (dose: 6.0 mg/kg/injection, schedule: Q04DX003 (ip), vehicle: saline with Tween-80) was 90 % of control. The T/C (dose: 13.0 mg/kg/injection, schedule: Q04DX003 (ip), vehicle: saline with Tween-80) was 190 % of control, the T/C (dose: 17.0 mg/kg/injection, schedule: Q01DX009 (ip), vehicle: saline with Tween-80) was 240 % of control and the T/C (dose: 20.0 mg/kg/injection, schedule: Q04DX003 (ip), vehicle: saline with Tween-80) was 204 % of control. For the same compound, the T/C [3] was 240 % of control, the T/C (dose: 30.0 mg/kg/injection, schedule: Q04DX003 (ip), vehicle: saline with Tween-80) was 271 % of control and the T/C (dose: 37.0 mg/kg/injection, schedule: Q01DX009 (ip), vehicle: saline with Tween-80) was 184 % of control. For the same compound, the T/C (dose: 44.0 mg/kg/injection, schedule: Q04DX003 (ip), vehicle: saline with Tween-80) was 242 % of control and 300 % of control, the T/C (dose: 67.0 mg/kg/injection, schedule: Q04DX003 (ip), vehicle: saline with Tween-80) was 272 % of control and 300 % of control and the T/C [6] was 87 % of control.

— PubChem BioAssay AID328 (DTP/NCI, 2004)
